# Data reported in ChEMBL document CHEMBL1201862, “PubChem BioAssay data set” (2004).
#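 Dose response: 5 concentrations. Exposure: 48 h. Format: 96-well plates. Endpoint: linear interpolation; highest concentration if not reached. The concentration for 50% growth inhibition is given as GI50.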 The source made the active and inactive calls. No stated cut-off is given here; in the data, active = GI50 up to about 1.1 µM and inactive = higher.
# What was measured:
# Assay in all cases: NCI-60 cell line screen, 48 h
# [1] = tested on: DMS-114
# [2] = tested on: SNB-78
# [3] = tested on: HOP-18
# [4] = tested on: LXFL 529
# [5] = tested on: KM-20L2
# [6] = tested on: XF498
# [7] = tested on: Hs-578T
# [8] = tested on: M19-MEL
# [9] = tested on: RXF 631
Compound,GI50 [1],GI50 [2],GI50 [3],GI50 [4],GI50 [5],GI50 [6],GI50 [7],GI50 [8],GI50 [9]
c1c(N2CCOCC2)s[s+]c1N1CCOCC1,> 100 µM (inactive),> 100 µM (inactive),> 100 µM (inactive),> 100 µM (inactive),> 100 µM (inactive),,,,
COc1ccc(C(=O)C(C(=O)C(=O)NCCCNC(=O)C(=O)C(C(=O)c2ccc(OC)cc2)c2ccc(OC)cc2)c2ccc(OC)cc2)cc1 (centres undefined),> 100 µM (inactive),> 100 µM (inactive),> 100 µM (inactive),> 100 µM (inactive),> 100 µM (inactive),> 100 µM (inactive),,,
COC(=O)C1(CCCCCBr)CCCCCCCCCCC1=O (centres undefined),,,,,,,> 100 µM (inactive),,
O=C(N/N=C(COc1ccccc1Cl)\N=C\c1cccnc1)c1ccncc1,,,,,,,66.2 µM (inactive),,
CCCC(=O)Nc1cc(C(=O)N2C[C@H]3C[C@@]34C2=CC(=O)c2[nH]cc(C)c24)n(COC)c1,,,,,,,0.512 µM (active),,
CS(=O)(=O)OCCN(CCOS(C)(=O)=O)c1ccc(/C=N/c2ccc(-c3csc(COc4ccccc4)n3)cc2)cc1,5.85 µM (inactive),18.7 µM (inactive),5.25 µM (inactive),12.1 µM (inactive),3.14 µM (inactive),2.12 µM (inactive),15.1 µM (inactive),13.4 µM (inactive),
COC(=O)Cc1cc(=O)n2c([nH]c3ccccc32)c1C#N,> 100 µM (inactive),> 100 µM (inactive),,,> 100 µM (inactive),> 100 µM (inactive),,> 100 µM (inactive),
CCOC(=O)C1S/C(=N\c2ccc(C)c(C)c2)N=C1C (centres undefined),> 100 µM (inactive),,> 100 µM (inactive),> 100 µM (inactive),> 100 µM (inactive),> 100 µM (inactive),,> 100 µM (inactive),
C=C(Cl)C(Cl)(CBr)CCC(Cl)C(C)C (centres undefined),,,,,,,1.16 µM (inactive),,
O=C1OC(c2ccccc2)=N/C1=C\c1cn[nH]n1,,,,,,,> 100 µM (inactive),,
O=C(N/C(=C\c1ccccc1)c1nc2ccccc2c(=O)o1)c1ccccc1,,,,,,,22.1 µM (inactive),,
O=C(O)CCC(NC(=O)c1ccc(Nc2cnc3cc(C(F)(F)F)ccc3n2)cc1)C(=O)O (centres undefined),> 100 µM (inactive),> 100 µM (inactive),> 100 µM (inactive),,> 100 µM (inactive),> 100 µM (inactive),,,
O=C1C=CC[C@H]2O[C@@H](COC(=O)Cc3ccccc3)C[C@H]2O1,,,,,,,26.2 µM (inactive),,
Cc1c(C2=NN=C(/N=N/c3c(O)cccc3O)/C2=C/c2ccccc2)c(=O)n(-c2ccccc2)n1C,> 100 µM (inactive),> 100 µM (inactive),> 100 µM (inactive),,> 100 µM (inactive),> 100 µM (inactive),,> 100 µM (inactive),
CSCCCCCCCCCCOc1ccc(C=C2C(=C(C#N)C#N)c3ccccc3C2=C(C#N)C#N)cc1,,,,,,,20.5 µM (inactive),,
COC(=O)C1=C(C(=O)OC)SC(=C(/N=N/c2ccccc2)c2ccccc2)S1,,> 100 µM (inactive),> 100 µM (inactive),58.5 µM (inactive),> 100 µM (inactive),,,> 100 µM (inactive),> 100 µM (inactive)
COC(=N)c1ncn(Cc2ccccc2)c1N,,,,,,,> 100 µM (inactive),,
CC1=CC(=O)N(n2c(C)n[nH]c2=O)C1=O,,,,,,,> 100 µM (inactive),,
COc1cc(/C=C2\CCc3ccccc3C2=O)ccc1O,,,,,,,29 µM (inactive),,
COc1cc(CCN(C)C)cc(OC)c1OC,,,,,,,> 100 µM (inactive),,
CC(C)c1ccc2c(c1)C=C1OC(=O)[C@]3(C)CCC[C@@]2(C)C13 (some centres undefined),,,,,,,> 100 µM (inactive),,
Br[Se]c1ccccn1,,,,,,,18.7 µM (inactive),,
COc1ccc(NC(=O)CSc2nnc(Cc3ccccc3)o2)cc1,17.9 µM (inactive),> 100 µM (inactive),> 100 µM (inactive),> 100 µM (inactive),> 100 µM (inactive),,,82.6 µM (inactive),
COC(=O)[C@]1(C)CCCC2(C)C1CC[C@H]1C=C(C)[C@H]3CCC12C3 (some centres undefined),86.9 µM (inactive),> 100 µM (inactive),,> 100 µM (inactive),> 100 µM (inactive),> 100 µM (inactive),,,> 100 µM (inactive)
Cc1nc(-n2nc(-c3ccccc3)cc2-c2ccccc2)sc1C(=O)/C=C/c1ccc(Cl)c(Cl)c1,33.3 µM (inactive),15.6 µM (inactive),,15.3 µM (inactive),12.2 µM (inactive),17.1 µM (inactive),,51.6 µM (inactive),8.26 µM (inactive)
CC1(C)S[C@@H]2[C@H](NC(=O)CCC[C@@H](N)C(=O)O)C(=O)N2[C@H]1C(=O)O [ADICILLIN],,> 50 µM (inactive),> 50 µM (inactive),,> 24.8 µM (inactive),24.1 µM (inactive),,> 50 µM (inactive),
C/C=C/c1cc(=O)c([C@@H]2OC(=O)c3cc(OC)cc(OC)c32)co1 [VERMISTATIN],21.7 µM (inactive),,,24.5 µM (inactive),67.5 µM (inactive),,,35.1 µM (inactive),
